Reference: US20040229284A1, “Multiplex analysis of proteins” (The Regents of the University of California, priority 2003, published 2004)

Experiments:
Type in all cases: cell-based
LAT [1] = test: Immunoprecipitation and Western analysis with biotinylated 4G10, Jurkat lysates: LAT; conditions: Jurkat cell lysates, treated vs untreated; FIG. 3
Protocol: (§1) To confirm that microspheres coated with antibodies to Lck, Zap70 and LAT captured predominantly specific proteins in cell lysates, immunoprecipitation was performed with these antibodies. Cell lysates (1×10^8 cells in 1 ml) were incubated with 2.5 μg of each antibody for 1 hr. The immune complexes were captured with Protein G conjugated sepharose (Sigma Chemicals, St. Louis, Mo.) and resolved by standard polyacrylamide gel electrophoresis (PAGE). Resolved proteins were transferred to PVDF membrane (BiORad, Hercules, Calif.) and probed with biotinylated 4G10 (1:2000 dilution in 5% non-fat powdered milk in PBS). Phosphorylated bands were finally detected by ABC Detection Reagent (Vector Laboratories, Burlingame, Calif.) and Chemiluminescent Substrate (Pierce). […] These phosphorylated proteins predominated in their respective immunoprecipitates.

EGFR = test: Microsphere (Luminex) detection of tyrosine-phosphorylated EGFR in lysates of activated A431 cells; conditions: for detection of tyrosine phosphorylated EGFR in lysates of activated cells: anti-EGFR coated microspheres, 4G10-biotin, streptavidin-R-phycoerythrin
Protocol: A431 cells were grown to 80-90% confluency in T75 flasks. Cells were washed once with fresh media (37° C.). For treatment, sodium pervanadate was prepared as described above and diluted into DMEM to 1 mM final concentration. Two ml of 1 mM sodium pervanadate containing media, prewarmed to 37° C., was added per T75 flask and the cell monolayer was covered with it. Cells were incubated at 37° C. for 5 min. Activated cells were lysed and processed as described below.
For pathway specific activation of A431 cells, which overexpress the epidermal growth factor receptor (EGFR), the cells were treated with epidermal growth factor (EGF). Cells were grown to about 80-90% confluency in a T75 flask. The optimal concentration of EGF for activation of the EGFR pathway in A431 cells was determined to be 100 μM. EGF was diluted in DMEM containing 10% serum. Two ml of the diluted EGF (100 μM) was layered on top of the cell monolayer. Cells were incubated at 37° C. for 15 min for activation. Activated cells were lysed and processed as described below.
A431 cells were lysed by adding 1 ml of 1× lysis buffer (1% NP-40 and protease inhibitor cocktail in PBS), pre-chilled on ice, per T75 flask. Cells were removed by scraping with a cell scraper. Lysate was vortexed immediately after addition of lysis buffer and incubated on ice for 15 min. While incubating on ice, it was mixed by vortexing every 5 min. […]
After incubation with the lysate, liquid was drained from the bottom of plate, under vacuum, on a suction apparatus (Millipore Corporation) designed to fit these plates. […] Washed microspheres were resuspended in 100 μl of wash buffer per well and analyzed in the Luminex-100™ instrument, according to the manufacturer's instructions.
Later experiments focused on analyzing multiple proteins in another pathway simultaneously, as described below. (It will be evident that multiple proteins in the EGFR pathway or any other pathways or combinations thereof could similarly be analyzed simultaneously.)

LAT [2] = test: Five-plex microsphere (Luminex) assay of tyrosine phosphorylation in activated Jurkat T-cells: LAT; conditions: lysate from pervanadate treated Jurkat cells, 37° C., 5 min; FIG. 2
Protocol: (§2) Jurkat cells were resuspended to a density of 1×10^8 cells/ml in PBS. Cells were pre-warmed to 37° C. for 15 min. To each milliliter of cell suspension, 40 μl of sodium pervanadate was added. Cells were mixed and immediately incubated at 37° C. for 5 min. Activated cells were lysed, and cell lysates were processed as described below.
(§3) For pathway specific activation, Jurkat cells were treated with anti-CD3-receptor monoclonal antibody (UCHT1) (Becton Dickenson, San Diego, Calif.). Cells were resuspended in PBS at a density of 1×10^8/ml and prewarmed to 37° C. Anti-CD3 antibody was added to a final concentration of 5 μg/ml. Cells were mixed and incubated at 37° C. for various times ranging from 5 sec to 10 min. Optimal phosphorylation of most tyrosine kinases and their substrates in the T-cell receptor pathway occurred in 5 min.
(§4) Jurkat cells were lysed by adding a volume of 2× lysis buffer (2% NP-40 and protease inhibitor cocktail (both from Roche Diagnostics, Mannheim, Germany) in PBS), pre-chilled on ice, equal to the volume of the resuspended cells. […]
(§5) After incubation with the lysate, liquid was drained from the bottom of plate, under vacuum, on a suction apparatus (Millipore Corporation) designed to fit these plates. […] Washed microspheres were resuspended in 100 μl of wash buffer per well and analyzed in the Luminex-100™ instrument, according to the manufacturer's instructions. […]

Zap70 [3] = test: Immunoprecipitation and Western analysis with biotinylated 4G10, Jurkat lysates: Zap70; conditions: Jurkat cell lysates, treated vs untreated; FIG. 3
Protocol: as §1

Lck [4] = test: Immunoprecipitation and Western analysis with biotinylated 4G10, Jurkat lysates: Lck; conditions: Jurkat cell lysates, treated vs untreated; FIG. 3
Protocol: as §1

Zap70 [5] = test: Five-plex microsphere (Luminex) assay of tyrosine phosphorylation in activated Jurkat T-cells: Zap70; conditions: lysate from pervanadate treated Jurkat cells, 37° C., 5 min; FIG. 2
Protocol: as §2, §3, §4, §5

Lck [6] = test: Five-plex microsphere (Luminex) assay of tyrosine phosphorylation in activated Jurkat T-cells: Lck; conditions: lysate from pervanadate treated Jurkat cells, 37° C., 5 min; FIG. 2
Protocol: as §2, §3, §4, §5

Substance	phosphorylated band of LAT in immunoprecipitate (LAT [1])	detection of tyrosine phosphorylated EGFR in lysates of activated cells (EGFR)	fluorescent signal from streptavidin-phycoerythrin, anti-LAT coated microspheres (LAT [2])	phosphorylated band of Zap70 in immunoprecipitate (Zap70 [3])	phosphorylated band of Lck in immunoprecipitate (Lck [4])	fluorescent signal from streptavidin-phycoerythrin, anti-Zap70 coated microspheres (Zap70 [5])	fluorescent signal from streptavidin-phycoerythrin, anti-Lck coated microspheres (Lck [6])	optimal concentration of EGF for activation of the EGFR pathway (EGFR; 37° C., 15 min)
sodium pervanadate	detected only in lysates from cells treated with sodium pervanadate	could be detected	strong fluorescent signal	detected only in lysates from cells treated with sodium pervanadate	detected only in lysates from cells treated with sodium pervanadate	strong fluorescent signal	strong fluorescent signal	–
epidermal growth factor [EGF]	–	could be detected	–	–	–	–	–	100 µM
